Laboratory results reported in PMC5122408, “High throughput chemical library screening identifies a novel p110-δ inhibitor that potentiates the anti-myeloma effect of bortezomib” (Oncotarget, 2016).

Key:
PKC2β = PKC2β (Homo sapiens, UniProt O00750); test: Kinase inhibitory profile; format: biochemical; details: Class II PI3Ks; 10-point concentration assays
FGFR = test: Kinase inhibitory profile; format: biochemical; details: Other Clinically-relevant Kinases; 10-point concentration assays
ERBB2 = ERBB2 (Homo sapiens, UniProt P04626); test: Kinase inhibitory profile; format: biochemical; details: Other Clinically-relevant Kinases; 10-point concentration assays
K-562 = test: NCI-60 panel cell growth screen; format: cell-based, human; details: K-562 (Leukemia)
HO-92 = test: NCI-60 panel cell growth screen; format: cell-based, human; details: HO-92 (NSCLC)
NCI-H23 = test: NCI-60 panel cell growth screen; format: cell-based, human; details: NCI-H23 (NSCLC)
COLO205 = test: NCI-60 panel cell growth screen; format: cell-based, human; details: COLO205 (Colon cancer)
HCT-15 = test: NCI-60 panel cell growth screen; format: cell-based, human; details: HCT-15 (Colon cancer)
KM12 = test: NCI-60 panel cell growth screen; format: cell-based, human; details: KM12 (Colon cancer)
SW-620 = test: NCI-60 panel cell growth screen; format: cell-based, human; details: SW-620 (Colon cancer)
SF-268 = test: NCI-60 panel cell growth screen; format: cell-based, human; details: SF-268 (CNS Cancer)
SF-295 = test: NCI-60 panel cell growth screen; format: cell-based, human; details: SF-295 (CNS Cancer)
SF-539 = test: NCI-60 panel cell growth screen; format: cell-based, human; details: SF-539 (CNS Cancer)
U25 = test: NCI-60 panel cell growth screen; format: cell-based, human; details: U25 (CNS Cancer)
MM.1S myeloma cells = test: Mouse xenograft model of myeloma; format: in vivo, mice; details: subcutaneous myeloma xenograft; intravenous; bortezomib 0.5 mg/kg, DT97 10 mg/kg
Experimental: Five week old nude mice flanks are injected subcutaneously with MM.1S myeloma cells. Tumors formed within two weeks and mice were then treated intravenously with vehicle, bortezomib, DT97 or both bortezomib and DT97.
Subcutaneous tumors were generated after injection of myeloma cells. […] Vehicle or bortezomib was administered on days 1, 4, 8 and 11. Mice were euthanized when tumors reached 2 cm^3, became ulcerated or elicited neurologic or musculoskeletal complications that limited mobility and feeding. Survival and tumor growth were evaluated from the first day of treatment. Shown is the average of replicate measurements. […] Kaplan-Meier survival curves comparison of NOD. SCID mice after subcutaneous injection of parental myeloma cells treated with vehicle, DT97, bortezomib or both.
Mice received intravenous injection of either vehicle (PBS in 10% DMSO); bortezomib (0.5 mg/kg), DT97 (10 mg/kg) or both bortezomib and DT97. Tumor volume (TV) measurements were made using a vernier caliper and calculated using the formula: TV = 0.5 (a × b^2) where a is the long diameter and b the short diameter. Mice were euthanized when tumors reached 2 cm^3, became ulcerated or elicited neurologic or musculoskeletal complications that limited mobility and feeding.
In vivo statistical tests were performed using the 2-tailed Student t test.

CXCR12 = test: CXCL12/SDF-1 alpha ELISA, MM cells co-cultured with BMSCs; format: cell-based, human
RPMI8226 cells = test: XTT viability of RPMI8226 cells after PIK3CD shRNA knockdown; format: cell-based; details: XTT assay
Experimental: Values represent the average of triplicate measurements. […] Values represent the average of triplicate measurements. […] Values represent the average of triplicate measurements.
Cells were plated, treated as indicated for 72 h and 2, 3-bis-(2-methoxy-4-nitro-5-sulfophenyl)-2H-tetrazolium-5-carboxanilide) added (Sigma-Aldrich) after activation with N-methyl dibenzopyrazine methyl sulfate (Sigma-Aldrich). Absorbance was measured and the effect on myeloma viability determined as previously described. Assays were performed in triplicate and the mean and standard deviation determined. Relative cell viability (mean ± SD) was calculated compared to readings from untreated cells.
shRNA in pLKO.1-TCR lentiviral cloning vectors were transfected into 293T packaging cells with packaging and envelope vector using lipofectamine 2000 (Thermo-Fisher). Viral supernatants were used to transduce myeloma cells. After 48 h, virus was collected and RPMI8226 cells transduced with vectors expressing scrambled (control) or p110-specific shRNA. Cells were mixed with virus and polybrene (8 μg/mL), centrifuged at 2000 × rpm for 90 min, incubated overnight, media changed and selected in puromycin.

p110-γ = p110-γ (Homo sapiens, UniProt P48736); test: Kinase inhibitory profile / PIP3 production
Chain of p110-γ (P48736 whole entry): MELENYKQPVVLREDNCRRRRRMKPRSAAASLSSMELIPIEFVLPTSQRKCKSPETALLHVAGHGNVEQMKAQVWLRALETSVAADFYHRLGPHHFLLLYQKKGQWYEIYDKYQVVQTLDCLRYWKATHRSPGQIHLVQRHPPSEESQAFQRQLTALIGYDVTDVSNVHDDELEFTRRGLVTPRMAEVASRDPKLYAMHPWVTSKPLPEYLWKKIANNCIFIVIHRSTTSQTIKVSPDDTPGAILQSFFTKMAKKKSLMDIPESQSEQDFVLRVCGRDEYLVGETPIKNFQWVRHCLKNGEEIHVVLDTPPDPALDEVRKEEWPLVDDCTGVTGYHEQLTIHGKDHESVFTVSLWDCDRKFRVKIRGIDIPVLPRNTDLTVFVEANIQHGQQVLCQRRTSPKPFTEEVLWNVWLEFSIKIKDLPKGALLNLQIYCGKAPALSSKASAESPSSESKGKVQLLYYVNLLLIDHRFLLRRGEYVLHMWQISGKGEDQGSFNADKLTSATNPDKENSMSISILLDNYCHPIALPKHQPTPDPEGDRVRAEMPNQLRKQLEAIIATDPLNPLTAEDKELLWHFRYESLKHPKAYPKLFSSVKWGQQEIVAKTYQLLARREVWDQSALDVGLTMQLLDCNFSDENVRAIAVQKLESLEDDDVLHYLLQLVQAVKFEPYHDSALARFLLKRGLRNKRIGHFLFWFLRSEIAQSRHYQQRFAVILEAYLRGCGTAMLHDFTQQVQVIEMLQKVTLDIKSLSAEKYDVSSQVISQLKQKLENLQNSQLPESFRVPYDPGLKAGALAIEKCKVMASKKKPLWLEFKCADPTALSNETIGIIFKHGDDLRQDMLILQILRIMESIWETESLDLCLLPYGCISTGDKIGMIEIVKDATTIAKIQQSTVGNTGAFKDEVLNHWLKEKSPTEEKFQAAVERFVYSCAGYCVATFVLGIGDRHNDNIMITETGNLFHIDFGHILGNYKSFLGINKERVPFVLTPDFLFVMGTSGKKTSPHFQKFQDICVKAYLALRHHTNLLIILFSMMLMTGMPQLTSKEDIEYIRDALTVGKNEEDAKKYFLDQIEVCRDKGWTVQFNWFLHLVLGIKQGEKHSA
Experimental: To directly assess PI3K activity, PI3K was isolated by immunoprecipitation using an antibody to the p85 adapter subunit and the ability of the co-precipitated catalytic p110 subunit to convert PIP2 to PIP3 in a kinase reaction assessed by measuring the amount of PIP3 generated using a competitive ELISA [40, 41]. […] Lysates were centrifuged at 13,000 × rpm for 10 min and supernatants stored at −80°C. Frozen lysates were thawed and PI3K immunoprecipitated with 5 μl anti-PI3K p85 (Cell Signaling Technology, Danvers, MA) for 1 h at 4°C, followed by the addition of 60 μl of a 50% slurry of Protein A agarose beads for 1 h at 4°C. The immunoprecipitate was collected by centrifugation at 13,000 × rpm for 10 sec, washed 3 times in buffer A + 1% NP40, thrice with 0.1 M Tris-HCl, pH 7.4, 5 mM LiCl, 0.1 mM Na orthovanadate and twice with 10 mM Tris-HCl, pH 7.4, 150 mM NaCl, 5 mM ethylenediaminetetraacetic acid (EDTA), 0.1 mM Na orthovanadate. […] Reactions were incubated for 3 h at 37°C with 40 pmol PIP2 (Echelon Biosciences, Salt Lake City, UT). Reactions were stopped with EDTA (5 mM) and centrifuged at 13,000 × rpm at 4°C. Supernatants were transferred to a microtitre plate for a competitive ELISA (Echelon Biosciences) to quantify PIP3 generated. […] Absorbance was measured (450 nm) and PIP3 quantified using a standard curve generated with experimental samples and plotted on a log scale.

p110-δ = p110-δ (Homo sapiens, UniProt O00329); test: Kinase inhibitory profile / PIP3 production; set-up: Inhibitory profile (kinase inhibition): key to the marks not given beside the values
Chain of p110-δ (O00329 whole entry): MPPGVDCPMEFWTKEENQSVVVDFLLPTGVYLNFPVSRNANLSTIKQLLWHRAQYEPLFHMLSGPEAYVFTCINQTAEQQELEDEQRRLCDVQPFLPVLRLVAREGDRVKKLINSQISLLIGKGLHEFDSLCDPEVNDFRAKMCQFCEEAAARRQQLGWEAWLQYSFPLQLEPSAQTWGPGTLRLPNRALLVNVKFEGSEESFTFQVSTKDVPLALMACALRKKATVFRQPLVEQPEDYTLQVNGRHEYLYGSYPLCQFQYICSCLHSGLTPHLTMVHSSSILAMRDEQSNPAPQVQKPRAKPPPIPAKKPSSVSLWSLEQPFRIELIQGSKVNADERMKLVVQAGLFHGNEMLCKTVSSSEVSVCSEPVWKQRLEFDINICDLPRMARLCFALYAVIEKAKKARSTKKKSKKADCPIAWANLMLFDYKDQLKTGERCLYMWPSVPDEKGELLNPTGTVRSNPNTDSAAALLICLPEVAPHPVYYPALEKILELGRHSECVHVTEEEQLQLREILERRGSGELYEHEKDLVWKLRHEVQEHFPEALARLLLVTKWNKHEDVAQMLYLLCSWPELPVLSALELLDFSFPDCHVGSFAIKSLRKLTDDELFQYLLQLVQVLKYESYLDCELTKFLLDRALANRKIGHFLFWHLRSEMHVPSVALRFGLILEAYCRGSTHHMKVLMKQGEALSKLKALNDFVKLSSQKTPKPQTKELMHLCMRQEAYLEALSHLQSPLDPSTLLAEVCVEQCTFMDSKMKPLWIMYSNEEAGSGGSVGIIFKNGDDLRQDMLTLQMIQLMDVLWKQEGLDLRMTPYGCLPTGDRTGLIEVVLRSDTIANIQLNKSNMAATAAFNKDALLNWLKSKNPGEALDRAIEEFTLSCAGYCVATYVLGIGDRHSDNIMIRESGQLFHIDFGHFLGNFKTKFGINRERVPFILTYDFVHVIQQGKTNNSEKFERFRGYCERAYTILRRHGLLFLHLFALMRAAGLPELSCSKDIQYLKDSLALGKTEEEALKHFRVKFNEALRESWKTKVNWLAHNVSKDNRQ
Chain of p110-δ (P27986 whole entry partner): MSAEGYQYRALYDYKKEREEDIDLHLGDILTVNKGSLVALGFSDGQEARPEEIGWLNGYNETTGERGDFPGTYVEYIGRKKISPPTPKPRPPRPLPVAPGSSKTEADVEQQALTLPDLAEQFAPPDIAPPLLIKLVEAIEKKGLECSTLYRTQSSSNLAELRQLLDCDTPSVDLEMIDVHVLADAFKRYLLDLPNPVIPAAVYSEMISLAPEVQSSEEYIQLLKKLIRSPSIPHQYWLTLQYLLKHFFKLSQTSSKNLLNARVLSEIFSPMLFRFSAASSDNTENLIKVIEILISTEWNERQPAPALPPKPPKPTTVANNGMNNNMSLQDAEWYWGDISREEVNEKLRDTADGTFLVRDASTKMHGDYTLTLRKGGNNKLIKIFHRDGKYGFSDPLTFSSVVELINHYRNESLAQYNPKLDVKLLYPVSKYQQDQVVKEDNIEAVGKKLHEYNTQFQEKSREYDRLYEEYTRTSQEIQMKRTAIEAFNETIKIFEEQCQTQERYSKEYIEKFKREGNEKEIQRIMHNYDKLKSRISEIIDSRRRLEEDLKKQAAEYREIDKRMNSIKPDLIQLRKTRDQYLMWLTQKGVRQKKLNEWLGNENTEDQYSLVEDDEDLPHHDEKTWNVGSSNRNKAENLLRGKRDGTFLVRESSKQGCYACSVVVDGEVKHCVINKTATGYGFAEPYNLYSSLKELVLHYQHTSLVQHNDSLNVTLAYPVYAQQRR

[1] = read-out: LC50 (the source's name)
[2] = Class I PI3Ks, 10-point concentration assays

Chain of PKC2β (O00750 whole entry): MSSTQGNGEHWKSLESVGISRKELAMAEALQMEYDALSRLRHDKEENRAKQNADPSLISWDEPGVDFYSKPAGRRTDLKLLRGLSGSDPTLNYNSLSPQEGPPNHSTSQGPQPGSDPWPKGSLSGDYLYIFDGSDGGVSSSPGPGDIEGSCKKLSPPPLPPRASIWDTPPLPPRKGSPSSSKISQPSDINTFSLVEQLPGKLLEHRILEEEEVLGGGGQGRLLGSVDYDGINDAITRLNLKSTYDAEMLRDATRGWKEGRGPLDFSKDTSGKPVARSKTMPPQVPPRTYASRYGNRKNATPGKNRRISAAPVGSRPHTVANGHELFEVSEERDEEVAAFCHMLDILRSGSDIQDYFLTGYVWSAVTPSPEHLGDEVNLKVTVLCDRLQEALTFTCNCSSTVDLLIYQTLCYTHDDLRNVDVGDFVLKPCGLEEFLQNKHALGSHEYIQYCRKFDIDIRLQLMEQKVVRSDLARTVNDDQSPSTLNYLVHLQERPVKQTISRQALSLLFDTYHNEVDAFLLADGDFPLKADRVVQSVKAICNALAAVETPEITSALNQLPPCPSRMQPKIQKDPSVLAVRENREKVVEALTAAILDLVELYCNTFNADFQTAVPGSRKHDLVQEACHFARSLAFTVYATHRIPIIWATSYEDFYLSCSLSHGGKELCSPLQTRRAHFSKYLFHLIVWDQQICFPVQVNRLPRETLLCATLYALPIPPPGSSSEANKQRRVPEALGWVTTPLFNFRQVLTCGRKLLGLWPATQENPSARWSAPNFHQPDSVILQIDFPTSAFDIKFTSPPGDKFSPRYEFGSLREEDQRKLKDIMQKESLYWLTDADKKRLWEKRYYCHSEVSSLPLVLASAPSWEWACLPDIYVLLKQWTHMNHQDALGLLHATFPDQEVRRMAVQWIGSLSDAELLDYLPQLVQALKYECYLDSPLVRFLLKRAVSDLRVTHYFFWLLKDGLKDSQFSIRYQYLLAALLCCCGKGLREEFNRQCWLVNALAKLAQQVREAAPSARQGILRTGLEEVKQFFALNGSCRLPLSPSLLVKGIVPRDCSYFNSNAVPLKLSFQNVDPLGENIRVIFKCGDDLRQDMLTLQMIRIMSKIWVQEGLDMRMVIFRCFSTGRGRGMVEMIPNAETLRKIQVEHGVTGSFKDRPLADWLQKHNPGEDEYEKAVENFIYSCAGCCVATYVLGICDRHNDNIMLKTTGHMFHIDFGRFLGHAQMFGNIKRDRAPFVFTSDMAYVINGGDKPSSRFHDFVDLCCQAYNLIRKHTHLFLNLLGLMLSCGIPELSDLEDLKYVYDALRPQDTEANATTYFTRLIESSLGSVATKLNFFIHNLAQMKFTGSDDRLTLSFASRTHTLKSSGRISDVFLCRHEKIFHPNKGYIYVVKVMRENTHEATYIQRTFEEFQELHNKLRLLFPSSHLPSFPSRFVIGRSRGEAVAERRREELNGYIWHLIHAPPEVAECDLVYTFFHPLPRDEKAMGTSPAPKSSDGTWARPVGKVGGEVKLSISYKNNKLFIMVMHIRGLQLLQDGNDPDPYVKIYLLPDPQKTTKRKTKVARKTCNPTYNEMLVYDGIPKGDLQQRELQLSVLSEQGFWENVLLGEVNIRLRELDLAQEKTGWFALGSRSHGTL

What does the source list for “N-[4-hydroxy-3-(8-quinolinylthio)-1-naphthyl]benzenesulfonamide [DT97]”?
Inhibitory profile (kinase inhibition) (PKC2β): +; Inhibitory profile (kinase inhibition) (FGFR): none; Inhibitory profile (kinase inhibition) (ERBB2): +; GI50 (K-562): 929 nM; TGI (K-562): 1.65E-5; Percent Growth (K-562; log concentration −4.0): −12%; Percent Growth (K-562; log concentration −5.0): 3%; Percent Growth (K-562; log concentration −6.0): 48%; Percent Growth (K-562; log concentration −7.0): 111%; Percent Growth (K-562; log concentration −8.0): 108%; CC50 (K-562; [1]): > 100000 nM; GI50 (HO-92): 2610 nM; TGI (HO-92): 7.38E-6; Percent Growth (HO-92; log concentration −4.0): −89%; Percent Growth (HO-92; log concentration −5.0): −15%; Percent Growth (HO-92; log concentration −6.0): 96%; Percent Growth (HO-92; log concentration −7.0): 77%; Percent Growth (HO-92; log concentration −8.0): 84%; CC50 (HO-92; [1]): 29800 nM; GI50 (NCI-H23): 1930 nM; TGI (NCI-H23): 1.28E-5; Percent Growth (NCI-H23; log concentration −4.0): −58%; Percent Growth (NCI-H23; log concentration −5.0): 7%; Percent Growth (NCI-H23; log concentration −6.0): 67%; Percent Growth (NCI-H23; log concentration −7.0): 102%; Percent Growth (NCI-H23; log concentration −8.0): 98%; CC50 (NCI-H23; [1]): 75900 nM; GI50 (COLO205): 1710 nM; TGI (COLO205): 3.70E-6; Percent Growth (COLO205; log concentration −4.0): −59%; Percent Growth (COLO205; log concentration −5.0): −64%; Percent Growth (COLO205; log concentration −6.0): 85%; Percent Growth (COLO205; log concentration −7.0): 99%; Percent Growth (COLO205; log concentration −8.0): 94%; CC50 (COLO205; [1]): 8030 nM; GI50 (HCT-15): 464 nM; TGI (HCT-15): 2.50E-6; Percent Growth (HCT-15; log concentration −4.0): −70%; Percent Growth (HCT-15; log concentration −5.0): −40%; Percent Growth (HCT-15; log concentration −6.0): 27%; Percent Growth (HCT-15; log concentration −7.0): 97%; Percent Growth (HCT-15; log concentration −8.0): 100%; CC50 (HCT-15; [1]): 21200 nM; GI50 (KM12): 2030 nM; TGI (KM12): 1.65E-5; Percent Growth (KM12; log concentration −4.0): −87%; Percent Growth (KM12; log concentration −5.0): 24%; Percent Growth (KM12; log concentration −6.0): 61%; Percent Growth (KM12; log concentration −7.0): 104%; Percent Growth (KM12; log concentration −8.0): 104%; CC50 (KM12; [1]): 46600 nM; GI50 (SW-620): 1040 nM; TGI (SW-620): 1.16E-5; Percent Growth (SW-620; log concentration −4.0): −49%; Percent Growth (SW-620; log concentration −5.0): 3%; Percent Growth (SW-620; log concentration −6.0): 51%; Percent Growth (SW-620; log concentration −7.0): 88%; Percent Growth (SW-620; log concentration −8.0): 94%; CC50 (SW-620; [1]): > 100000 nM; GI50 (SF-268): 1480 nM; TGI (SF-268): 1.28E-5; Percent Growth (SF-268; log concentration −4.0): −68%; Percent Growth (SF-268; log concentration −5.0): 8%; Percent Growth (SF-268; log concentration −6.0): 59%; Percent Growth (SF-268; log concentration −7.0): 100%; Percent Growth (SF-268; log concentration −8.0): 98%; CC50 (SF-268; [1]): 57700 nM; GI50 (SF-295): 2840 nM; TGI (SF-295): 1.50E-5; Percent Growth (SF-295; log concentration −4.0): −78%; Percent Growth (SF-295; log concentration −5.0): 17%; Percent Growth (SF-295; log concentration −6.0): 78%; Percent Growth (SF-295; log concentration −7.0): 94%; Percent Growth (SF-295; log concentration −8.0): 92%; CC50 (SF-295; [1]): 50700 nM; GI50 (SF-539): 957 nM; TGI (SF-539): 5.13E-6; Percent Growth (SF-539; log concentration −4.0): −86%; Percent Growth (SF-539; log concentration −5.0): −20%; Percent Growth (SF-539; log concentration −6.0): 49%; Percent Growth (SF-539; log concentration −7.0): 98%; Percent Growth (SF-539; log concentration −8.0): 93%; CC50 (SF-539; [1]): 28500 nM; GI50 (U25): 780 nM; TGI (U25): 2.42E-5; Percent Growth (U25; log concentration −4.0): −13%; Percent Growth (U25; log concentration −5.0): 8%; Percent Growth (U25; log concentration −6.0): 43%; Percent Growth (U25; log concentration −7.0): 107%; Percent Growth (U25; log concentration −8.0): 103%; CC50 (U25; [1]): > 100000 nM; overall survival (OS) (MM.1S myeloma cells): 16 days; production of CXCR12 (CXCR12): induction was inhibited; viability (RPMI8226 cells): little effect; Inhibitory profile (kinase inhibition) (p110-γ; [2]): none; production of PIP3 (dose-dependent effect) (p110-γ; p110-γ isoform, Figure 4B): no effect; Inhibitory profile (kinase inhibition) (p110-δ; [2]): +++; production of PIP3 (dose-dependent effect) (p110-δ; p110-δ isoform, Figure 4B): most potently
